Biological target: T1, GqinOBP10
T1 construct: gene OBP10; full length 134 residues (405 bp); signal peptide removed; vector pCZN1, E. coli BL21 (DE3); His tag cut off with enterokinase; about 15 kDa
Test: fluorescence competitive binding with 1-NPN probe
Design: species or system Gynaephora qinghaiensis
Settings: 2 µM protein, 50 mM Tris-HCl pH 7.4; displacement of 1-NPN
Description: fluorescence competitive binding with 1-NPN probe on GqinOBP10

Row | SMILES | IC50 | Ki
1 | O=C1CCC(=O)CC1 [1,4-Cyclohexanedione] | 13.1 µM | 13 µM
2 | N#CC[C@H](N)C(=O)O [β-cyano-L-alanine] | 12.3 µM | 12.2 µM
3 | NC1(C(=O)O)CC1 [1-Aminocyclopropane-1-carboxylic acid] | 18.7 µM | 18.6 µM
4 | OC1CCc2ccccc21 (stereo not shown) [1-Indanol] | 12 µM | 11.9 µM
5 | CC(CN)C(=O)O (stereo not shown) [3-Aminoisobutanoic acid] | 15 µM | 14.9 µM
6 | OCCC(O)CO (stereo not shown) [1,2,4-butanetriol] | 11.7 µM | 11.6 µM
7 | CCCCCCCC/C=C\CCCCCCCC(=O)OC(CO)CO [2-Oleoylglycerol] | 6 µM | 5.96 µM
8 | NCC(O)c1ccccc1 (stereo not shown) [2-Amino-1-phenylethanol] | 4.51 µM | 4.48 µM

From publication PMC12607499, “Prokaryotic Expression and Binding Characteristics of Odor-Binding Protein GqinOBP10 in Gynaephora qinghaiensis” (International Journal of Molecular Sciences, 2025)
